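Interpolation was linear, between the two tested concentrations surrounding the appropriate level; five concentrations were tested over 48 hours in 96-well plates. Here, GI50 denotes the concentration required for 50% inhibition of growth.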 Calls of active or inactive are those of the source. Cut-off read from the data, not from the text of the source: active = GI50 up to about 1.1 µM and inactive = higher.
Tests used:
Assay in all cases: DTP human tumour cell line panel, 48 h
[1] = test system: SK-MEL-5
[2] = test system: NCI-H23
[3] = test system: NCI-H460
[4] = test system: SF-539
[5] = test system: Malme-3M
[6] = test system: CCRF-CEM
[7] = test system: EKVX
[8] = test system: ACHN
[9] = test system: SR
[10] = test system: CAKI-1
[11] = test system: HCT-15
[12] = test system: NCI/ADR-RES
[13] = test system: SF-295
[14] = test system: OVCAR-3
[15] = test system: HT-29
[16] = test system: HL-60
[17] = test system: UO-31
[18] = test system: HOP-92
[19] = test system: SK-MEL-28
[20] = test system: SNB-19

SMILES | GI50 [1] | GI50 [2] | GI50 [3] | GI50 [4] | GI50 [5] | GI50 [6] | GI50 [7] | GI50 [8] | GI50 [9] | GI50 [10] | GI50 [11] [µM] | GI50 [12] | GI50 [13] | GI50 [14] | GI50 [15] | GI50 [16] | GI50 [17] | GI50 [18] | GI50 [19] | GI50 [20]
COC(=O)/C=C(/OC)[C@H](C)[C@H](/C=C/c1csc(-c2csc(C(C)C)n2)n1)OC | < 0.0177 µM (active) | 0.569 µM (active) | 0.0521 µM (active) | 8.79 µM (inactive) | 18.8 µM (inactive) | 18.2 µM (inactive) | 0.721 µM (active) | 0.124 µM (active) | 0.0929 µM (active) | 7.08 µM (inactive) | 0.0975 | 0.841 µM (active) | 0.0681 µM (active) | 0.35 µM (active) | 0.29 µM (active) | 2.51 µM (inactive) | 0.703 µM (active) | 6.07 µM (inactive) | 63.5 µM (inactive) | 
COc1ccc2c(c1)CCN1CCc3ccccc3CC21 (centres undefined) | 15.1 µM (inactive) | 39 µM (inactive) | 30.8 µM (inactive) | 36.6 µM (inactive) | 43.1 µM (inactive) | 33.3 µM (inactive) | > 100 µM (inactive) | 45 µM (inactive) | 35.2 µM (inactive) | 47.2 µM (inactive) | 48.2 | 42.9 µM (inactive) | 19.2 µM (inactive) | 72.4 µM (inactive) | 27.8 µM (inactive) | 16.8 µM (inactive) | 11 µM (inactive) | 20.5 µM (inactive) | 27.6 µM (inactive) | 32.9 µM (inactive)
CC[C@@]1(O)C(=O)OCc2c1cc1n(c2=O)Cc2c-1nc1ccccc1c2/C=N\NC(=O)C(N)Cc1c[nH]cn1 (some centres undefined) | 0.222 µM (active) | 0.111 µM (active) | 0.0832 µM (active) | 0.0528 µM (active) | 2.53 µM (inactive) | 0.0214 µM (active) | 7.45 µM (inactive) | 0.043 µM (active) | 0.0101 µM (active) | 0.147 µM (active) | 1.34 | 0.41 µM (active) | 0.132 µM (active) | 3.95 µM (inactive) | 2.1 µM (inactive) | 0.164 µM (active) | 0.348 µM (active) | 1.1 µM (active) | 1.26 µM (inactive) | 0.0908 µM (active)
CCOP(=O)(OCC)/C(C#N)=C/c1c(C)[nH]c2ccccc12 | > 100 µM (inactive) | > 100 µM (inactive) | > 100 µM (inactive) | > 100 µM (inactive) | > 100 µM (inactive) | > 100 µM (inactive) | > 100 µM (inactive) | > 100 µM (inactive) | > 100 µM (inactive) | > 100 µM (inactive) | > 100 | > 100 µM (inactive) | > 100 µM (inactive) | > 100 µM (inactive) | > 100 µM (inactive) | > 100 µM (inactive) | 30.4 µM (inactive) | > 100 µM (inactive) | > 100 µM (inactive) | > 100 µM (inactive)

— ChEMBL document CHEMBL1201862, “PubChem BioAssay data set” (2004)
